# System: epithelial breast carcinoma cell line (MDAMB-435)
# Experiment: effect of compounds on growth of epithelial breast carcinoma cell line MDAMB-435 (MTT, 5 days)
# Format: cell-based
# Conditions: Homo sapiens, MDA-MB-435, 120 h, MDAMB-435 cells, 5 days post drug addition, 0.1% DMSO
# Description: The epithelial breast carcinoma cell line (MDAMB-435) was purchased from ATCC (American Type Cell Culture Collection) and was grown in culture in medium as recommended by ATCC. For analysis of the effect of various compounds on growth of these cells, the cells were plated at a concentration of 1500 cells/well in a 96 well tissue culture plate ("test plate). The day after the cells were plated, the compounds to be analyzed were dissolved in 100% DMSO (dimethyl sulfoxide) to yield at 10 mM stock solution. Each compound was diluted in H2 O to 1 mM and was added to triplicate wells in the first row of a 96 well master plate which contains medium to yield a final concentration of 40 μM. The compounds were then serially diluted in medium in the "master plate". The diluted compound(s) were then transferred to test plates containing cells. A row of vehicle "control cells" received DMSO. The final concentration of DMSO in each well was 0.1%. 5 days post drug addition, the plate was analyzed as follows:
# MTT (3-(4-5 methyl thiazole-2-yl)-2,5-diphenyl tetrazolium bromide; thiazolyl blue) was added to each well to yield a final concentration of 1 mg/ml. The plate was then incubated at 37° C. for 21/2-3 hours. The MTT containing medium was then removed and 50 μl of 100% ethanol was added to each well to dissolve the formazan. The absorbences were then read using an automated plate reader (Bio-tek microplate reader).
# IC50 's were calculated using the Reed and Munsch equation, see Am. J. Hygiene Vol. 27 pgs. 493-497, 1938.
row,IC50,SMILES
1,400 nM,"Cc1ccc2c(C3=C(c4cn(C)c5ccc(Cl)cc45)C(=O)NC3=O)cn(C)c2c1 [H Cl H CH3, 3-(5-Chloro-1-methyl-1H-indol-3-yl)-4-(1,6-dimethyl-1H-indol-3-yl)-pyrrole-2,5-dione]"
2,170 nM,"Cn1cc(C2=C(c3cn(C)c4cc([N+](=O)[O-])ccc34)C(=O)NC2=O)c2cc(Cl)ccc21 [H Cl H NO2, 3-(5-Chloro-1-methyl-1H-indol-3-yl)-4-(l-methyl-6-nitro-1H-indol-3-yl)-pyrrole-2,5-dione]"
3,70 nM,"Cn1cc(C2=C(c3cn(C)c4cc([N+](=O)[O-])ccc34)C(=O)NC2=O)c2ccc(Br)cc21 [H H Br NO2, 3-(6-Bromo-1-methyl-1H-indol-3-yl)-4-(1-methyl-6-nitro-1H-indol-3-yl)-pyrrole-2,5-dione]"
4,12 nM,"Cn1cc(C2=C(c3cn(C)c4cc([N+](=O)[O-])ccc34)C(=O)NC2=O)c2ccc(NC(=O)C(F)(F)F)cc21 [H H CF3 CONH NO2, N-{1-methyl-3-[4-(1-methyl-6-nitro-1H-indol-3-yl)-2,5-dioxo-2,5-dihydro-1H-pyrrol-3-yl]-1H-indol-3-yl}-trifluoroacetamide]"
5,10 nM,"Cc1ccc2c(C3=C(c4cn(C)c5cc(C#N)ccc45)C(=O)NC3=O)cn(C)c2c1 [H H CH3 CN, 3-[4-(1,6-dimethyl-1H-indol-3-yl)-2,5-dioxo-2,5-dihydro-1H-pyrrole-3-yl]-1-methyl-1H-indole-6-carbonitrile]"
6,70 nM,"COc1ccc2c(C3=C(c4cn(C)c5cc(NC(C)=O)ccc45)C(=O)NC3=O)cn(C)c2c1 [H H CH3 CONH CH3 O, N-{3-[4-(6-Methoxy-1-methyl-1H-indol-3-yl)-2,5-dioxo-2,5-dihydro-1H-pyrrol-3-yl]-1-methyl-1H-indol-6-yl}-acetamide]"
7,20 nM,CC(=O)Nc1ccc2c(C3=C(c4cn(C)c5cc([N+](=O)[O-])ccc45)C(=O)NC3=O)cn(C)c2c1 [H H CH3 CONH NO2]
8,< 10 nM,"CNc1ccc2c(C3=C(c4cn(C)c5cc(OC)ccc45)C(=O)NC3=O)cn(C)c2c1 [H H CH3 NH CH3 O, 3-(6-Methoxy-1-methyl-1H-indol-3-yl)-4-(1-methyl-6-methyl-amino-1H-indol-3-yl)-pyrrole-2,5-dione]"
9,70 nM,"Cc1ccc2c(C3=C(c4cn(C)c5cc([N+](=O)[O-])ccc45)C(=O)NC3=O)cn(C)c2c1 [H H CH3 NO2, 3-(1,6-dimethyl-1H-indol-3-yl)-4-(1-methyl-6-nitro-1H-indol-3-yl)-pyrrole-2,5-dione]"
10,20 nM,"COc1ccc2c(C3=C(c4cn(C)c5cc(C)ccc45)C(=O)NC3=O)cn(C)c2c1 [H H CH3 OCH3, 3-(1,6-dimethyl-1H-indol-3-yl)-4-(6-methoxy-1-methyl-1H-indol-3-yl)-pyrrole-2,5-dione]"
11,10 nM,COc1ccc2c(C3=C(c4cn(C)c5cc(NC=O)ccc45)C(=O)NC3=O)cn(C)c2c1 [H H CHONH CH3 O]
12,50 nM,"Cn1cc(C2=C(c3cn(C)c4cc([N+](=O)[O-])ccc34)C(=O)NC2=O)c2ccc(C#N)cc21 [H H CN NO2, 1-methyl-3-[4-(1-methyl-6-nitro-1H-indol-3-yl)-2,5-dioxo-2,5-dihydro-1H-pyrrol-3-yl]1H-indole-6-carbonitrile]"
13,5 nM,"COc1ccc2c(C3=C(c4cn(C)c5cc(C#N)ccc45)C(=O)NC3=O)cn(C)c2c1 [H H CN OCH3, 3-[4-(6-methoxy-1-methyl-1H-indol-3-yl)-2,5-dioxo-2,5-dihydro-1H-pyrrole-3-yl]-1-methyl-indol-6-carbonitrile]"
14,7 nM,"COC(=O)c1ccc2c(C3=C(c4cn(C)c5cc([N+](=O)[O-])ccc45)C(=O)NC3=O)cn(C)c2c1 [H H CO2 CH3 NO2, 1-methyl-3[4-(1-methyl-6-nitro-1H-indol-3-yl)-2,5-dioxo-2,5-dihydro-1H-pyrrole-3-yl]-1H-indole-6-carboxylic acid methyl ester]"
15,7 nM,"COc1ccc2c(C3=C(c4cn(C)c5cc(Cl)ccc45)C(=O)NC3=O)cn(C)c2c1 [H H Cl OCH3, 3-(6-chloro-1-methyl-1H-indol-3-yl)-4-(6-methoxy-1-methyl-1H-indol-3-yl)-pyrrole-2,5-dione]"
16,40 nM,"CCOCCOCCOc1ccc2c(C3=C(c4cn(C)c5cc([N+](=O)[O-])ccc45)C(=O)NC3=O)cn(C)c2c1 [H H Et(OCH2 CH2)2 O NO2, 3-{6-[2-(2-Ethoxy-ethoxy)-ethoxy]-1-methyl-1H-indol-3-yl}-4-(1-methyl-6-nitro-1H-indol-3-yl)-pyrrole-2,5-dione]"
17,20 nM,"COc1ccc2c(C3=C(c4cn(C)c5cc(F)ccc45)C(=O)NC3=O)cn(C)c2c1 [H H F OCH3, 3-(6-fluoro-1-methyl-1H-indol-3-yl)-4-(6-methoxy-1-methyl-1H-indol-3-yl)-pyrrole-2,5-dione]"
18,70 nM,"COc1ccc2c(C3=C(c4cn(C)c5cc(N=[N+]=[N-])ccc45)C(=O)NC3=O)cn(C)c2c1 [H H N3 CH3 O, 3-(6-Azido-1-methyl-1H-indol-3-yl)-4-(6-methoxy-1-methyl-1H-indol-3-yl)-pyrrole-2,5,-dione]"

# The next lines start with the compound.
row,SMILES,IC50
1,"CCOc1ccc2c(C3=C(c4cn(C)c5cccc(Br)c45)C(=O)NC3=O)cn(C)c2c1 [Br H H EtO, 3-(4-Bromo-1-methyl-1H-indol-3-yl)-4-(6-ethoxy-1-methyl-1H-indol-3-yl)-pyrrole-2,5-dione]",200 nM
2,"COc1ccc2c(C3=C(c4cn(C)c5cccc(OC)c45)C(=O)NC3=O)cn(C)c2c1 [CH3 O H H CH3 O, 3-(6-Methoxy-1-methyl-1H-indol-3-yl)-4-(4-methoxy-1-methyl-1H-indol-3-yl)-pyrrole-2,5-dione]",70 nM
3,"COc1cccc2c1c(C1=C(c3cn(C)c4cc([N+](=O)[O-])ccc34)C(=O)NC1=O)cn2C [CH3 O H H NO2, 3-(4-Methoxy-1-methyl-1H-indol-3-yl)-4-(1-methyl-6-nitro-1H-indol-3-yl)-pyrrole-2,5-dione]",400 nM
4,"COc1ccc2c(C3=C(c4cn(C)c5cccc(F)c45)C(=O)NC3=O)cn(C)c2c1 [F H H CH3 O, 3-(4-Fluoro-1-methyl-1H-indol-3-yl)-4-(6-methoxy-1-methyl-1H-indol-3-yl)-pyrrole-2,5-dione]",200 nM
5,"CCOc1ccc2c(C3=C(c4cn(C)c5cccc(F)c45)C(=O)NC3=O)cn(C)c2c1 [F H H EtO, 3-(4-Fluoro-1-methyl-1H-indol-3-yl)-4-(6-ethoxy-1-methyl-1H-indol-3-yl)-pyrrole-2,5-dione]",32 nM
6,"Cn1cc(C2=C(c3cn(C)c4cccc(F)c34)C(=O)NC2=O)c2ccc([N+](=O)[O-])cc21 [F H H NO2, 3-(4-Fluoro-1-methyl-1H-indol-3-yl)-4-(1-methyl-6-nitro-1H-indol-3-yl)-pyrrole-2,5-dione]",50 nM
7,"Cc1ccc2c(c1)c(C1=C(c3cn(C)c4cc(C)ccc34)C(=O)NC1=O)cn2C [H CH3 H CH3, 3-(1,6-Dimethyl-1H-indol-3-yl)-4-(1,5-dimethyl-1H-indol-3-yl)-pyrrole-2,5-dione]",400 nM
8,"Cc1ccc2c(c1)c(C1=C(c3cn(C)c4cc([N+](=O)[O-])ccc34)C(=O)NC1=O)cn2C [H CH3 H NO2, 3-(1,5-Dimethyl-1H-indol-3-yl)-4-(1-methyl-6-nitro-1H-indol-3-yl)-pyrrole-2,5-dione]",130 nM
9,COc1ccc2c(c1)c(C1=C(c3cn(C)c4cc(OC)ccc34)C(=O)NC1=O)cn2C [H CH3 O H CH3 O],70 nM
10,"COc1ccc2c(c1)c(C1=C(c3cn(C)c4cc(SC)ccc34)C(=O)NC1=O)cn2C [H CH3 O H CH3 S, 3-(5-Methoxy-1-methyl-11H-indol-3-yl)-4-(1-methyl-6-methylsulfanyl-1H-indol-3-yl)-pyrrole-2,5-dione]",200 nM
11,"COc1ccc2c(c1)c(C1=C(c3cn(C)c4cc(C#N)ccc34)C(=O)NC1=O)cn2C [H CH3 O H CN, 3-[4-(5-methoxy-1-methyl-1H-indol-3-yl)-2,5-dioxo-2,5-dihydro-1H-pyrrol-3-yl]-1-methyl-1H-indole-6-carbonitrile]",70 nM
12,"COc1ccc2c(c1)c(C1=C(c3cn(C)c4cc(Cl)ccc34)C(=O)NC1=O)cn2C [H CH3 O H Cl, 3-(6-Chloro-1-methyl-1H-indol-3-yl)-4-(5-methoxy-1-methyl-1H-indol-3-yl)-pyrrole-2,5-dione]",200 nM
13,"CCOc1ccc2c(C3=C(c4cn(C)c5ccc(OC)cc45)C(=O)NC3=O)cn(C)c2c1 [H CH3 O H EtO, 3-(6-Ethoxy-1-methyl-1H-indol-3-yl)-4-(5-methoxy-1-methyl-1H-indol-3-yl)-pyrrole-2,5-dione]",70 nM
14,"Cc1ccc2c(C3=C(c4cn(C)c5ccc(C#N)cc45)C(=O)NC3=O)cn(C)c2c1 [H CN H CH3, 3-[4-(1,6-Dimethyl-1H-indol-3-yl]-2,5-dioxo-2,5-dihydro-1H-pyrrol-3-yl]1-methyl-1H-indole-5-carbonitrile]",400 nM
15,"Cn1cc(C2=C(c3cn(C)c4cc([N+](=O)[O-])ccc34)C(=O)NC2=O)c2cc(C#N)ccc21 [H CN H NO2, 1-Methyl-3-[4-(1-methyl-6-nitro-1H-indol-3-yl)-2,5-dioxo-2,5-dihydro-1H-pyrrol-3-yl]-1H-indole-5-carbonitrile]",1000 nM
